Molecules are shown by their SMILES.

From patent US20240025913A1, “TERTIARY CARBOXAMIDE COMPOUNDS” (Vivace Therapeutics, Inc., priority 2020, published 2024) come the findings set out here.

The assay has as its system 8×TBD luciferase reporter in HEK293T cells. The assay is described as follows: YAP Reporter Assay (firefly luciferase). The assay is classed as cell-based. Particulars: Homo sapiens, HEK-293T; HEK293T cells stably transfected with 8×TBD luciferase reporter and pRLTK; 24-hr incubation; starting from 3 μM, 1:3 dilution, 10 points. The procedure:
HEK293T cells stably transfected with 8×TBD luciferase reporter and pRLTK in 384-well plates were treated with the test compounds, starting from 3 μM (final concentration in assay plate), 1:3 dilution, and 10 points in quadruplicates. Post 24-hr incubation with compounds at 37° C. and 5% CO2, cells were lysed and 8×TBD-driven firefly luciferase and control TK-driven renilla luciferase activities were measured using Promega Dual-Luciferase Reporter Assay System.
Reagents: The reagents used for this study are: DMEM: Invitrogen #11960077, Dual-Glo Luciferase Assay System: Promega-E2980, Puromycin Dihydrochloride: Invitrogen-A1113803, 384-well plate: PerkinElmer-6007480, L-GLUTAMINE: Invitrogen-25030164, Hygromycin B: Invitrogen-10687010, and Penicillin-Streptomycin: Merk-TMS-AB2-C
Media: The media used for this assay were: Culture Medium: DMEM+1 ug/mL puromycin+200 ug/mL hygromycin (with 10% FBS+1 mM L-glutamine); and Assay Medium: DMEM (with 10% FBS+1 mM L-glutamine+1×P/S).
Cell Plating: The appropriate media was warmed at 37° C. by water bath: Culture Medium, Assay Medium, 1*D-PBS, 0.05% trypsin-EDTA. The cells were trypsinized after removing all media, then washed with 1*sterile D-PBS and then with 2 ml 0.05% trypsin-EDTA. The cells were then incubated at RT for one minute. Then 10 ml/75 cm2 flask Assay Medium was added to each flask. Using a 10 ml pipette, the cells were then gently resuspended in the media, until the clumps completely disappeared. The cells were then transferred into 50 ml centrifuge tubes and were centrifuged at 800 rpm for 5 mins. The medium was removed and the cells were resuspended with Assay Medium. An aliquot of cells was used to count the cell density (cells/ml). The cell suspension was then diluted with Assay Medium to a concentration of 6×10^4 cells/ml. 50 ul cells suspension was then plated to 384-well plate (PerkinElmer-6007480), 3×10^3 cells/well and the cells were incubated in an incubator at 37° C., 5% CO2.
Compound Treatment: In the afternoon (incubation of the plate with 3-4 hrs), the test compounds were added by Echo, starting from 3 uM (final concentration in the assay plate), 1:3 dilution, 10 points, quadruplicates. The plate was placed at 37° C., 5% CO2 incubator for 24 hrs.
Detection: The Dual-Glo Luciferase Reagent was prepared by transferring the contents of one bottle of Dual-Glo Luciferase Buffer to one bottle of Dual-Glo Luciferase Substrate to create the Dual-G Luciferase Reagent. Mixing was performed by inversion until the substrate was thoroughly dissolved. After mixing, the reagent was aliquoted into 15 ml tubes. In the afternoon (24 hrs post compound treatment), the DMEM+ medium in the 384 well plates were aspirated by Microplate Washer.
Measuring firefly luciferase activity: 20 ul Dual-Glo Luciferase Reagent was added to the 384-well plates. The plates were protected from light to prevent interference with the assay. The plates were shaken for […] followed centrifuging plates at 1000 rpm for 30 seconds. After waiting at least 10 minutes, the firefly luminescence was measured by Envision.
Measuring renilla luciferase activity: 20 ul Stop-Glo Reagent was added to the 384-well plates. The plates were shaken for […] and then centrifuged at 1000 rpm for 30 seconds. After waiting at least 10 minutes, the renilla luminescence was measured by Envision.
Compound IC50 and maximum inhibition on the firefly luciferase and renilla luciferase activities were reported separately.
A general note: In a reporter assay the amount or activity of a reporter protein is the signal.
On to `CNCC1CN(C(=O)c2ccc3c(Oc4ccc(C(F)(F)F)cc4)cccc3c2)C1` [Compound 25, (3-((Methylamino)methyl)azetidin-1-yl)(5-(4-(trifluoromethyl)phenoxy)naphthalen-2-yl)methanone], for which the IC50 is 100 to 1000 nM.

Regarding `O=C(c1ccc2c(Oc3ccc(C(F)(F)F)cc3)cccc2c1)N1CC2(CN(CCF)C2)C1` [Compound 23, (6-(2-Fluoroethyl)-2,6-diazaspiro[3.3]heptan-2-yl)(5-(4-(trifluoromethyl)phenoxy)naphthalen-2-yl)methanone], the IC50 lay within 100 to 1000 nM.

As for `CN(C)C1CN(C(=O)c2ccc3c(Oc4ccc(C(F)(F)F)cc4)cccc3c2)C1` [Compound 12, (3-(Dimethylamino)azetidin-1-yl)(5-(4-(trifluoromethyl)phenoxy)naphthalen-2-yl)methanone], the half-maximal inhibitory concentration (IC50) fell in the range of 1000 to 3000 nM.

`NCC1CCCN(C(=O)c2ccc3c(Oc4ccc(C(F)(F)F)cc4)cccc3c2)C1` (stereo not shown) [Compound 9, (3-(Aminomethyl)piperidin-1-yl)(5-(4-(trifluoromethyl)phenoxy)naphthalen-2-yl)methanone]: the IC50 lay within 100 to 1000 nM.

`CCN1CC2(C1)CN(C(=O)c1ccc3c(Oc4ccc(C(F)(F)F)cc4)cccc3c1)C2` [Compound 19, (6-Ethyl-2,6-diazaspiro[3.3]heptan-2-yl)(5-(4-(trifluoromethyl)phenoxy)naphthalen-2-yl)methanone] registered an IC50 of 100 to 1000 nM.

With `CN(C)CC1CN(C(=O)c2ccc3c(Oc4ccc(C(F)(F)F)cc4)cccc3c2)C1` [Compound 14, (3-((Dimethylamino)methyl)azetidin-1-yl)(5-(4-(trifluoromethyl)phenoxy)naphthalen-2-yl)methanone], the concentration for half-maximal inhibition (IC50) lay in the range of 100 to 1000 nM.

Regarding `O=C(c1ccc2c(Oc3ccc(C(F)(F)F)cc3)cccc2c1)N1CC2(C1)CN(c1ccccn1)C2` [Compound 41, (6-(Pyridin-2-yl)-2,6-diazaspiro[3.3]heptan-2-yl)(5-(4-(trifluoromethyl)phenoxy)naphthalen-2-yl)methanone], the IC50 was 1000 to 3000 nM.

Take `O=C(c1ccc2c(Oc3ccc(C(F)(F)F)cc3)cccc2c1)N1CC2(CN(CC(F)F)C2)C1` [Compound 24, (6-(2,2-Difluoroethyl)-2,6-diazaspiro[3.3]heptan-2-yl)(5-(4-(trifluoromethyl)phenoxy)naphthalen-2-yl)methanone]: the IC50 lay within 100 to 1000 nM.

As to `CNC1CN(C(=O)c2ccc3c(Oc4ccc(C(F)(F)F)cc4)cccc3c2)C1` [Compound 26, (3-(Methylamino)azetidin-1-yl)(5-(4-(trifluoromethyl)phenoxy)naphthalen-2-yl)methanone], the IC50 was in the range of 100 to 1000 nM.

`CN1CC2(C1)CN(C(=O)c1ccc3c(Oc4ccc(C(F)(F)F)cc4)cccc3c1)C2` [Compound 18, (6-Methyl-2,6-diazaspiro[3.3]heptan-2-yl)(5-(4-(trifluoromethyl)phenoxy)naphthalen-2-yl)methanone]: the half-inhibitory concentration (IC50) was 100 to 1000 nM.

The compound `O=C(c1ccc2c(Oc3ccc(C(F)(F)F)cc3)cccc2c1)N1CC(NCCF)C1` [Compound 31, (3-((2-Fluoroethyl)amino)azetidin-1-yl)(5-(4-(trifluoromethyl)phenoxy)naphthalen-2-yl)methanone] displayed a half-inhibitory concentration (IC50) of 100 to 1000 nM.

`NC1CN(C(=O)c2ccc3c(Oc4ccc(C(F)(F)F)cc4)cccc3c2)C1` [Compound 1A, (3-aminoazetidin-1-yl)(5-(4-(trifluoromethyl)phenoxy)naphthalen-2-yl)methanone] gave an IC50 of no more than 100 nM.

Take `O=C(c1ccc2c(Oc3ccc(C(F)(F)F)cc3)cccc2c1)N1CCNCC1` [Compound 2, Piperazin-1-yl(5-(4-(trifluoromethyl)phenoxy)naphthalen-2-yl)methanone]: the IC50 fell in the range of 1000 to 3000 nM.

As usually defined, the IC50 is the concentration that gives 50% inhibition.
